Laboratory results taken from PubChem BioAssay AID179 (DTP/NCI, 2004).
Several values for one entry are separate records, joined by “and”; a condition that tells them apart may be missing. Equal entries are not always repeated. Activity calls are given as the source filed them.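 Rule for the calls: active = compounds giving half or more protection of infected cells from virus-caused growth loss, again on retest; inactive = the rest.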 Where a SMILES comes first, the peptide text is derived from it. The star is where a group is joined. Cbz = O=C(OCc1ccccc1)*

Tested on: CEM cells HIV-1 protection, formazan growth assay
Test: NCI AIDS Antiviral Assay
Conditions: for IC50: measured here: growth of uninfected CEM cells
Protocol: The ability of compounds to protect human CEM cells from HIV-1 infection is measured as a screen for new compounds capable of inhibiting the HIV virus. Five concentrations of drug were tested on uninfected and infected cells and cell growth was measured using a soluble formazan assay. […] Compounds that provided at least 50% protection were retested. Compounds that provided at least 50% protection on retest were listed as moderately active. Compounds that reproducibly provided 100% protection were listed as confirmed active. […] Note that the inability to provide protection could be due to toxicity.

`Cc1cc(=O)c2c(o1)-c1c(cc(O)c(O)c1C(=O)O)OC2` was tested, and the EC50 was greater than 871 µM and the IC50 was 57.5 µM.
Work on `OC12CCCCCC1(N1CCOCC1)c1ccccc12` (stereo not given) yielded an EC50 greater than 200 µM and an IC50 greater than 200 µM.
Compound `CC(C)CCCC(C)[C@H]1CCC2C3CCC4C[C@@H](CCC=C(c5cc(Cl)c(OCc6ccc([N+](=O)[O-])cc6)c(C(=O)O)c5)c5cc(Cl)c(OCc6ccc([N+](=O)[O-])cc6)c(C(=O)O)c5)CC[C@]4(C)C3CC[C@@]21C` (stereo not given in full) has an EC50 of 115 µM and an IC50 greater than 200 µM.
In the case of `C=C1N(S(=O)(=O)c2ccc(C)cc2)C(=O)OCC12CCCC2`, the EC50 is reported as greater than 200 µM and the IC50 is reported as 44.7 µM.
In the case of `COc1ccccc1NC(=O)CC(=O)n1nc(C)c(N=Nc2ccccc2Cl)c1C`, the outcome is reported as “inactive”.
`COc1ccccc1C1=Nc2ccccc2N=C(c2ccccc2O)C1` was tested, and the EC50 was greater than 200 µM and the IC50 was 93.3 µM.
`O=C(Nc1ccc(C2=NCCN2)cc1)c1ccc(C(=O)Nc2ccc(C3=NCCN3)cc2)c(F)c1` was tested, and the EC50 was 120 µM and the IC50 was greater than 200 µM.
Work on `COc1ccc(C2(CC(C)O)SCCCS2)cc1` (stereo not given) yielded an EC50 greater than 200 µM and an IC50 of 115 µM.
With `NC(=O)N/N=C(/Cc1nc2ccc(C(=O)c3ccccc3)cc2[nH]c1=O)C(=O)Nc1ccc(C(F)(F)F)cc1[N+](=O)[O-]` the outcome was “inactive”.
In the case of `CCC1(O)CC(OC2CC(N(C)C)C(OC3CC4OC5CC(=O)C(C)OC5OC4C(C)O3)C(C)O2)c2c(cc3c(c2O)C(=O)c2c(O)ccc(O)c2C3=O)C1C(=O)OC` (stereo not given), the EC50 is reported as greater than 2.4 µM and the IC50 is reported as 0.0155 µM and 0.012 µM.
Work on `CC(=O)Nc1c(C#N)c2n(c1C(=O)Nc1ccc(Cl)cc1)CCC2` yielded an EC50 greater than 200 µM and an IC50 greater than 200 µM.
For `Cc1cn(C2CC(N=[N+]=[N-])C(COC(=O)CCCCCCCCCCCBr)O2)c(=O)[nH]c1=O` (stereo not given), the outcome was “active” and the IC50 was 37.2 µM.
Work on `CCOC(=O)CCC(NC(=O)C(CC(=O)OC)NC(=O)C(CC(=O)OC)NC(=O)C(CC(=O)OC)NC(=O)C(CC(=O)OC)NC(=O)OCc1ccccc1)C(=O)NC(CCC(=O)OCC)C(=O)NC(CCC(=O)OCC)C(=O)OCC` (stereo not given) (Cbz-D(OMe)D(OMe)D(OMe)D(OMe)E(OEt)E(OEt)E(OEt)-OEt; configuration not given here) yielded an EC50 greater than 50.1 µM and an IC50 greater than 50.1 µM.
Work on `O=C(Cn1ccnc1[N+](=O)[O-])c1ccc(F)cc1` yielded an EC50 greater than 724 µM and an IC50 of 339 µM.
Work on `O=C1CN(CCCN2CCOCC2)CC(=O)N2CCCCN12` yielded an EC50 greater than 200 µM and an IC50 greater than 200 µM.
For `O=C(O)c1cc(-c2ccccc2)c(-c2ccccc2)cc1C(c1ccccc1)c1ccccc1`, the EC50 was greater than 200 µM and the IC50 was 28.2 µM.
`O=c1ccccc2cccc(O)c12` was tested, and the outcome was “inactive”.
With `O=C(O)c1cc(O)c2c(=O)c3c(O)cc(O)c4c5c(O)cc(O)c6c(=O)c7c(O)cc(C(=O)O)c8c1c2c(c34)c(c65)c78` the outcome was “inactive”.
Work on `COC(=O)/C=C1\C(CO[Si](C)(C)C(C)(C)C)OC(n2cc(C)c(=O)[nH]c2=O)C1O[Si](C)(C)C(C)(C)C` (stereo not given) yielded an EC50 greater than 200 µM and an IC50 of 7.08 µM.
For `COC(=O)c1ccccc1/C=C1\Cc2cc(C)cc(C)c2C1=O`, the outcome was “inactive”.
In the case of `Cc1nc(=O)n2c(c1C(=O)Nc1ccc(Cl)cc1)NCCC2`, the outcome is reported as “inactive”.
Work on `Cn1c(=S)[nH]c(N)c(Cc2ccccc2)c1=O` yielded an EC50 greater than 200 µM and an IC50 of 64.6 µM.
Work on `COc1cccc(C2c3cc4c(cc3OC(NNc3ccccc3)C2C)OCO4)c1O` (stereo not given) yielded an EC50 greater than 200 µM and an IC50 of 11.2 µM.
With `O=c1c2cccnc2ncn1CCN1CCCCC1` the outcome was “inactive”.
`CC(C)C(Sc1nc(-c2ccccc2)c(-c2ccccc2)[nH]1)c1n[nH]c(=S)n1-c1ccccc1` (stereo not given) gave an EC50 greater than 14.8 µM and an IC50 of 7.08 µM.
`Cc1[nH]c(=O)c2oc3cc4ccccc4cc3c2c1C(=O)O` showed an EC50 greater than 200 µM and an IC50 greater than 200 µM.
`O=C1CCc2cc3c(cc21)C(C(=O)O)CC3` (stereo not given) was tested, and the EC50 was greater than 200 µM and the IC50 was greater than 200 µM.
`COC(=O)/C=C/CC(=O)NS(C)(=O)=O` was tested, and the EC50 was greater than 200 µM and the IC50 was greater than 200 µM.
`CSc1nc(N)cc(C(F)(F)F)n1` was tested, and the EC50 was greater than 200 µM and the IC50 was greater than 200 µM.
`NCc1ccccc1-c1c2nc(c(-c3ccccc3CN)c3ccc([nH]3)c(-c3ccccc3CN)c3nc(c(-c4ccccc4CN)c4ccc1[nH]4)C=C3)C=C2` was tested, and the EC50 was greater than 9.77 µM and the IC50 was greater than 9.77 µM.
Work on `Cn1ncnc1CCc1ccccc1` yielded an EC50 greater than 32.4 µM and an IC50 greater than 32.4 µM.
Work on `O=C(O)c1nc2ccc(C(F)(F)F)cc2[nH]c1=O` yielded an EC50 greater than 200 µM and an IC50 greater than 200 µM.
`NC(=O)N/N=C(\C(=O)C(=O)Nc1ccc(Cl)c(C(F)(F)F)c1)c1nc2ccc(C(=O)c3ccccc3)cc2[nH]c1=O` was tested, and the EC50 was greater than 61.7 µM and the IC50 was greater than 61.7 µM.
In the case of `COC(=O)[C@H]1C2c3ccccc3-c3ccccc3C2(OC(C)=O)[C@@]1(Cl)C(=O)OC` (stereo not given in full), the EC50 is reported as greater than 43.7 µM and the IC50 is reported as 6.31 µM.
With `Clc1ccc(Nc2nc3ccccc3nc2-c2cccs2)cc1Cl` the EC50 was greater than 14.1 µM and the IC50 was greater than 14.1 µM.
For `C=C1C(=O)OC2C=C(CCC(C)=O)C(C)C(OC(C)=O)CC12` (stereo not given), the outcome was “inactive”.
With `COc1ccc(OC)c2c(C(=O)O)c(C(C)c3ccccc3)ccc12` (stereo not given) the outcome was “inactive”.
Work on `C[C@]1(O)CC[C@H]2[C@@H]3CC[C@H]4C[C@H](O)[C@@H]5C[C@]4(CO5)[C@H]3CC[C@@]21C` yielded an EC50 greater than 110 µM and an IC50 greater than 110 µM.
`CCN(CC)CC(=O)Nc1c(C)cc(C(=O)NN)cc1C` was tested, and the EC50 was greater than 200 µM and the IC50 was greater than 200 µM.
`O=S(=O)([O-])c1ccc2c(N=Nc3ccc(/C=C\c4ccc(N=Nc5c([O-])ccc6cc(S(=O)(=O)[O-])ccc56)cc4S(=O)(=O)[O-])c(S(=O)(=O)[O-])c3)c([O-])ccc2c1.[Cu+2].[Cu+2].[Na+]` was tested, and the EC50 was greater than 19.1 µM and the IC50 was 15.8 µM.
`COc1cc2c(cc1OC)C(C1c3cc(OC)c(OC)cc3-c3c(OC)c(OC)cc4c3C1N(C)CC4)C1c3c(cc(OC)c(OC)c3-2)CCN1C` (stereo not given) was tested, and the outcome was “inactive”.
Work on `C=CC1(C)CC(=O)C2(O)C(O1)C(OC(C)=O)C(OC(C)=O)C1C2C(OC(C)=O)CCC1(C)C` (stereo not given) yielded an EC50 greater than 26.9 µM and an IC50 greater than 26.9 µM.
Work on `C=CCSC[C@H](NC(=O)COc1ccccc1)C(=O)NC(C(=O)OCc1ccc([N+](=O)[O-])cc1)=C(C)C` yielded an EC50 greater than 25.7 µM and an IC50 greater than 25.7 µM.
In the case of `N#Cc1ccc(C2Oc3ccc(Cl)cc3C=C2[N+](=O)[O-])cc1` (stereo not given), the EC50 is reported as greater than 200 µM and the IC50 is reported as 0.977 µM.
`O=C(CC(c1ccc2c(c1)OCO2)N1CCN(C(CC(=O)c2ccc(Br)cc2)c2ccc3c(c2)OCO3)CC1)c1ccc(Br)cc1` (stereo not given) gave an EC50 greater than 200 µM and an IC50 greater than 200 µM.
In the case of `N#CNC(N)=NCc1ccccc1`, the EC50 is reported as 155 µM and the IC50 is reported as 204 µM.
`CCC(C)[C@H](NC(=O)C1CCCN1C[C@H](O)[C@H](Cc1ccccc1)NC(=O)[C@@H](CC(N)=O)NC(=O)OCc1ccccc1)C(=O)N[C@H](Cc1ccccc1)C(=O)NCCCC[C@@H]1NC(=O)[C@H](CC(C)C)N(C)C(=O)[C@H](C(C)C)NC(=O)[C@H](CC(C)C)N(C)C(=O)[C@@H](CO)N(C)C(=O)[C@H](CC)NC(=O)[C@H]([C@H](O)C(C)C)N(C)C(=O)[C@H](C(C)C)N(C)C(=O)[C@H](CC(C)C)N(C)C(=O)[C@H](CC(C)C)N(C)C(=O)[C@@H](C)NC1=O` (stereo not given in full) was tested, and the EC50 was 0.501 µM and the IC50 was 67.6 µM.
`Nc1c(Cl)ncnc1NCCCNc1ncnc(Cl)c1N` was tested, and the outcome was “inactive”.
With `O/N=C\c1c2c(cc3c1CCC3)CCC2` the EC50 was greater than 200 µM and the IC50 was greater than 200 µM.
For `COc1ccc(CN2COc3c(cc(C)c4cccnc34)C2)cc1`, the EC50 was greater than 200 µM and the IC50 was 1.02 µM.
With `COCCN1CC(=O)N2Cc3ccccc3CN2C(=O)C1` the outcome was “inactive” and the IC50 was greater than 200 µM.
`CCN(CC)CCCNc1ncc(C)c2c1c1ccc3c(O)cccc3c1n2C` was tested, and the EC50 was greater than 13.2 µM and the IC50 was 0.24 µM.
`COc1cccc(C2c3cc4c(cc3OC(NNS(=O)(=O)c3ccc(C)cc3)C2C)OCO4)c1O` (stereo not given) showed an EC50 greater than 200 µM and an IC50 of 10.5 µM.
